Results taken from ChEMBL document CHEMBL1201862, “PubChem BioAssay data set” (2004).
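Each compound was tested at five concentrations against cells in 96-well plates for 48 hours. GI50 marks 50% less growth.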 Active and inactive are the calls of the source. Cut-off read from the data, not from the text of the source: active = GI50 up to about 1.1 µM and inactive = higher.

Key:
Experiment in all cases: NCI-60 cell line screen, 48 h
[1] = tested on: 786-0
[2] = tested on: A498
[3] = tested on: A549
[4] = tested on: ACHN
[5] = tested on: CAKI-1
[6] = tested on: COLO 205
[7] = tested on: DMS-114
[8] = tested on: DMS-273
[9] = tested on: EKVX
[10] = tested on: HCC 2998
[11] = tested on: HCT-116
[12] = tested on: HL-60
[13] = tested on: HOP-18
[14] = tested on: HOP-62
[15] = tested on: HOP-92
[16] = tested on: HT-29
[17] = tested on: IGROV-1
[18] = tested on: K562
[19] = tested on: KM-20L2
[20] = tested on: KM12
[21] = tested on: LXFL 529
[22] = tested on: M19-MEL
[23] = tested on: MOLT-4
[24] = tested on: Malme-3M
[25] = tested on: NCI-H23
[26] = tested on: NCI-H522
[27] = tested on: OVCAR-3
[28] = tested on: OVCAR-4
[29] = tested on: OVCAR-5
[30] = tested on: OVCAR-8
[31] = tested on: RPMI-8226
[32] = tested on: RXF 631
[33] = tested on: SF-268
[34] = tested on: SF-295
[35] = tested on: SF-539
[36] = tested on: SK-MEL-28
[37] = tested on: SK-MEL-2
[38] = tested on: SK-MEL-5
[39] = tested on: SK-OV-3
[40] = tested on: SN12C
[41] = tested on: SNB-19
[42] = tested on: SNB-75
[43] = tested on: SNB-78
[44] = tested on: SR
[45] = tested on: TK-10
[46] = tested on: U-251
[47] = tested on: UACC-257
[48] = tested on: UACC-62
[49] = tested on: UO-31
[50] = tested on: XF498
[51] = tested on: CCRF-CEM
[52] = tested on: HCT-15
[53] = tested on: LOX IMVI
[54] = tested on: M14
[55] = tested on: NCI-H226
[56] = tested on: NCI-H460
[57] = tested on: SW-620
[58] = tested on: DLD-1
[59] = tested on: RXF 393

COc1cc2ccc3c4c(OC)cc(OC)c(OC)c4c([O-])[n+](C)c3c2cc1OC
GI50 [1]: > 100 µM (inactive) | GI50 [2]: 3.76 µM (inactive) | GI50 [3]: 4.01 µM (inactive) | GI50 [4]: > 24.8 µM (inactive) | GI50 [5]: > 20.6 µM (inactive) | GI50 [6]: 2.58 µM (inactive) | GI50 [7]: 2.37 µM (inactive) | GI50 [8]: 0.428 µM (active) | GI50 [9]: 22.2 µM (inactive) | GI50 [10]: 14.4 µM (inactive) | GI50 [11]: 11.5 µM (inactive) | GI50 [12]: 1.33 µM (inactive) | GI50 [13]: > 100 µM (inactive) | GI50 [14]: 15.1 µM (inactive) | GI50 [15]: 12 µM (inactive) | GI50 [16]: 6.47 µM (inactive) | GI50 [17]: 6.98 µM (inactive) | GI50 [18]: 0.568 µM (active) | GI50 [19]: 9.38 µM (inactive) | GI50 [20]: 4.37 µM (inactive) | GI50 [21]: 1.79 µM (inactive) | GI50 [22]: 6.46 µM (inactive) | GI50 [23]: 1.67 µM (inactive) | GI50 [24]: 17.5 µM (inactive) | GI50 [25]: 10.1 µM (inactive) | GI50 [26]: 2.55 µM (inactive) | GI50 [27]: 7.13 µM (inactive) | GI50 [28]: 18.1 µM (inactive) | GI50 [29]: 11.1 µM (inactive) | GI50 [30]: 45.3 µM (inactive) | GI50 [31]: 0.368 µM (active) | GI50 [32]: > 100 µM (inactive) | GI50 [33]: 3.46 µM (inactive) | GI50 [34]: 4.47 µM (inactive) | GI50 [35]: > 32.7 µM (inactive) | GI50 [36]: 30.3 µM (inactive) | GI50 [37]: 21.9 µM (inactive) | GI50 [38]: 9.02 µM (inactive) | GI50 [39]: > 33 µM (inactive) | GI50 [40]: 1.74 µM (inactive) | GI50 [41]: 15.7 µM (inactive) | GI50 [42]: 11.8 µM (inactive) | GI50 [43]: 10.2 µM (inactive) | GI50 [44]: 0.759 µM (active) | GI50 [45]: > 40.3 µM (inactive) | GI50 [46]: 1.39 µM (inactive) | GI50 [47]: 17.9 µM (inactive) | GI50 [48]: 25.1 µM (inactive) | GI50 [49]: > 34 µM (inactive) | GI50 [50]: 2.34 µM (inactive)

COc1ccc(C2=Nc3ccccc3SC(C)C2)cc1OC (centres undefined)
GI50 [1]: 16.3 µM (inactive) | GI50 [2]: 23.8 µM (inactive) | GI50 [4]: 22.1 µM (inactive) | GI50 [5]: 19.6 µM (inactive) | GI50 [51]: 31.8 µM (inactive) | GI50 [6]: 20.4 µM (inactive) | GI50 [7]: 19.4 µM (inactive) | GI50 [8]: 16.7 µM (inactive) | GI50 [9]: 24.5 µM (inactive) | GI50 [10]: 18.6 µM (inactive) | GI50 [11]: 17.7 µM (inactive) | GI50 [52]: 17.8 µM | GI50 [12]: 22.4 µM (inactive) | GI50 [13]: > 10 µM (inactive) | GI50 [15]: 38.1 µM (inactive) | GI50 [16]: 19.7 µM (inactive) | GI50 [17]: 14.6 µM (inactive) | GI50 [18]: 25.5 µM (inactive) | GI50 [19]: 18.8 µM (inactive) | GI50 [20]: 16.8 µM (inactive) | GI50 [53]: 17.9 µM (inactive) | GI50 [21]: 17.4 µM (inactive) | GI50 [54]: 18.6 µM (inactive) | GI50 [23]: 14.5 µM (inactive) | GI50 [24]: 21.4 µM (inactive) | GI50 [55]: 20.4 µM (inactive) | GI50 [25]: 17.7 µM (inactive) | GI50 [56]: 19.2 µM (inactive) | GI50 [26]: 17.4 µM (inactive) | GI50 [27]: 16.6 µM (inactive) | GI50 [28]: 22.1 µM (inactive) | GI50 [29]: 24.7 µM (inactive) | GI50 [30]: 22.8 µM (inactive) | GI50 [31]: 13.8 µM (inactive) | GI50 [32]: 42.2 µM (inactive) | GI50 [33]: 22 µM (inactive) | GI50 [34]: 21 µM (inactive) | GI50 [36]: 24.6 µM (inactive) | GI50 [37]: 30.3 µM (inactive) | GI50 [38]: 17.9 µM (inactive) | GI50 [39]: 20.3 µM (inactive) | GI50 [40]: 20.3 µM (inactive) | GI50 [41]: 20.2 µM (inactive) | GI50 [42]: 14.3 µM (inactive) | GI50 [43]: 27.4 µM (inactive) | GI50 [44]: 20.8 µM (inactive) | GI50 [57]: 5.66 µM (inactive) | GI50 [45]: 29.8 µM (inactive) | GI50 [46]: 17.2 µM (inactive) | GI50 [47]: 23.5 µM (inactive) | GI50 [48]: 17.8 µM (inactive) | GI50 [49]: 17.8 µM (inactive) | GI50 [50]: 18.2 µM (inactive)

CCCCNC(=O)OCC(COc1ccccc1OC)OC(=O)NCCCC (centres undefined)
GI50 [1]: > 100 µM (inactive) | GI50 [2]: > 100 µM (inactive) | GI50 [3]: > 100 µM (inactive) | GI50 [4]: > 100 µM (inactive) | GI50 [5]: > 100 µM (inactive) | GI50 [51]: > 100 µM (inactive) | GI50 [6]: > 100 µM (inactive) | GI50 [58]: > 100 µM (inactive) | GI50 [7]: 78.7 µM (inactive) | GI50 [8]: > 100 µM (inactive) | GI50 [9]: > 100 µM (inactive) | GI50 [10]: > 100 µM (inactive) | GI50 [11]: > 100 µM (inactive) | GI50 [52]: > 100 µM | GI50 [12]: > 100 µM (inactive) | GI50 [13]: 39.5 µM (inactive) | GI50 [14]: > 100 µM (inactive) | GI50 [16]: > 100 µM (inactive) | GI50 [17]: > 100 µM (inactive) | GI50 [18]: 68.5 µM (inactive) | GI50 [19]: > 100 µM (inactive) | GI50 [20]: > 100 µM (inactive) | GI50 [53]: > 100 µM (inactive) | GI50 [21]: > 100 µM (inactive) | GI50 [54]: > 100 µM (inactive) | GI50 [22]: > 100 µM (inactive) | GI50 [23]: > 100 µM (inactive) | GI50 [24]: > 100 µM (inactive) | GI50 [55]: > 100 µM (inactive) | GI50 [25]: > 100 µM (inactive) | GI50 [56]: > 100 µM (inactive) | GI50 [26]: 45.4 µM (inactive) | GI50 [27]: > 100 µM (inactive) | GI50 [28]: > 100 µM (inactive) | GI50 [30]: > 100 µM (inactive) | GI50 [31]: 95.9 µM (inactive) | GI50 [59]: > 100 µM (inactive) | GI50 [32]: > 100 µM (inactive) | GI50 [33]: > 100 µM (inactive) | GI50 [34]: > 100 µM (inactive) | GI50 [35]: > 100 µM (inactive) | GI50 [36]: > 100 µM (inactive) | GI50 [37]: > 100 µM (inactive) | GI50 [38]: 87.5 µM (inactive) | GI50 [39]: > 100 µM (inactive) | GI50 [40]: > 100 µM (inactive) | GI50 [41]: > 100 µM (inactive) | GI50 [42]: 96.6 µM (inactive) | GI50 [43]: > 100 µM (inactive) | GI50 [57]: > 100 µM (inactive) | GI50 [45]: > 100 µM (inactive) | GI50 [46]: > 100 µM (inactive) | GI50 [47]: > 100 µM (inactive) | GI50 [48]: 89.9 µM (inactive) | GI50 [49]: 63.8 µM (inactive) | GI50 [50]: > 100 µM (inactive)

CC1C=C(OC(=O)c2ccccc2)C(=O)C(n2cc(F)c(=O)n(C(=O)c3ccccc3)c2=O)O1 (centres undefined)
GI50 [1]: 28.5 µM (inactive) | GI50 [3]: > 100 µM (inactive) | GI50 [4]: 50.5 µM (inactive) | GI50 [5]: 32.4 µM (inactive) | GI50 [51]: 18.1 µM (inactive) | GI50 [6]: 26.9 µM (inactive) | GI50 [58]: 41.6 µM (inactive) | GI50 [7]: 42.1 µM (inactive) | GI50 [8]: 37.4 µM (inactive) | GI50 [9]: > 100 µM (inactive) | GI50 [11]: 32.1 µM (inactive) | GI50 [52]: 32.5 µM | GI50 [12]: 23.9 µM (inactive) | GI50 [13]: > 100 µM (inactive) | GI50 [14]: > 100 µM (inactive) | GI50 [15]: 35.6 µM (inactive) | GI50 [16]: 34.7 µM (inactive) | GI50 [17]: > 100 µM (inactive) | GI50 [18]: 25.4 µM (inactive) | GI50 [19]: 32.1 µM (inactive) | GI50 [53]: 23.1 µM (inactive) | GI50 [54]: 51.3 µM (inactive) | GI50 [22]: 39.3 µM (inactive) | GI50 [23]: 32.7 µM (inactive) | GI50 [24]: 31 µM (inactive) | GI50 [25]: 43 µM (inactive) | GI50 [56]: > 100 µM (inactive) | GI50 [27]: 22.9 µM (inactive) | GI50 [28]: 52.2 µM (inactive) | GI50 [30]: 37.2 µM (inactive) | GI50 [31]: 38.1 µM (inactive) | GI50 [59]: 33.3 µM (inactive) | GI50 [32]: 52 µM (inactive) | GI50 [34]: 78 µM (inactive) | GI50 [35]: 89.5 µM (inactive) | GI50 [36]: 46.8 µM (inactive) | GI50 [37]: 45.3 µM (inactive) | GI50 [38]: 73.8 µM (inactive) | GI50 [39]: > 100 µM (inactive) | GI50 [40]: 53.1 µM (inactive) | GI50 [41]: > 100 µM (inactive) | GI50 [42]: 49.2 µM (inactive) | GI50 [43]: 51.2 µM (inactive) | GI50 [57]: 34.3 µM (inactive) | GI50 [45]: 69.3 µM (inactive) | GI50 [46]: 37.3 µM (inactive) | GI50 [47]: 70.1 µM (inactive) | GI50 [48]: 35.3 µM (inactive) | GI50 [49]: 93.3 µM (inactive) | GI50 [50]: 21.8 µM (inactive)
